Columns and labels:
[1] = molecular target: Free fatty acid receptor 1 (Homo sapiens, UniProt O14842); test: Agonist activity at human FFA1 expressed in CHO cells assessed as increase in calcium level measured by Fluo-4-AM staining based FLIPR assay; type: functional, cell-based
[2] = Toxicity in ICR mouse at 500 mg/kg, ig measured after 7 days; type: organism-based; details: in vivo, po, 168 h, time 7 day

Sequence of Free fatty acid receptor 1 (O14842 whole entry): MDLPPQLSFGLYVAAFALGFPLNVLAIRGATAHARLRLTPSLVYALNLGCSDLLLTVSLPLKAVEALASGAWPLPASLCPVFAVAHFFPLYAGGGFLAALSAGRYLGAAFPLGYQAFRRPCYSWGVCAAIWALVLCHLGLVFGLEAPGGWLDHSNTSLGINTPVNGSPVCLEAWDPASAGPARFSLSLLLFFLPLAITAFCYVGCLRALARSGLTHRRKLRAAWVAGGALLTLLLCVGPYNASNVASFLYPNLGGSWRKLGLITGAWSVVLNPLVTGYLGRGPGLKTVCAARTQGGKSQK

SMILES	EC50 [1] [nM]	Activity [2]
Cc1cc(OCCCS(C)(=O)=O)ccc1-c1cccc(COc2ccc(OCC(=O)O)c(F)c2)c1	61	
COc1ccc2cc(-c3cccc(COc4ccc(OCC(=O)O)c(F)c4)c3)ccc2c1		Non-Toxic
